# Measurements published in publication PMC6263544, “Second-generation pterocarpanquinones: synthesis and antileishmanial activity” (The Journal of Venomous Animals and Toxins Including …, 2018).
# Columns and labels:
# [1] = tested on: intracellular amastigotes of L. amazonensis; test: Antiamastigote test, L. amazonensis in mouse peritoneal macrophages; type: cell-based, Leishmania amazonensis; conditions: CC50 in Macrophages/IC50 in intracellular amastigotes
# Method: (§1) For the test against intracellular amastigotes of L. amazonensis and L. infantum, resident peritoneal macrophages (swiss mouse) were plated in RPMI (Sigma-Aldrich) at 2 × 10^6/mL (0.4 mL/well) in Lab-Tek eight-chamber slides (Nunc, Roskilde, Denmark) and incubated at 37 °C in 5% CO2 for 1 h. Stationary-phase L. amazonensis and L. infantum promastigotes were added at respective parasite/macrophage ratios of 3:1 and 5:1 for 4 h. After washing three times, pterocarpanquinones 2a-f at various concentrations were added for 72 h. Next, the slides were stained using an Instant Prov hematological dye system (Newprov, Curitiba, Brazil). The number of amastigotes was determined by counting at least 100 macrophages per sample.
# (§2) The results were expressed as an infection index (% infected cells×number of amastigotes/total number of macrophages). The 50% inhibitory concentration (IC50) was determined by nonlinear regression analysis in the software GraphPad Prism 5.
# [2] = tested on: intracellular amastigotes of L. braziliensis; test: Antiamastigote test, L. braziliensis in golden hamster macrophages; type: cell-based; conditions: CC50 in Macrophages/IC50 in intracellular amastigotes
# Method: Macrophages of golden hamsters were used in assays against intracellular amastigotes of L. braziliensis due to the natural resistance of mice. Resident macrophages were obtained from the peritoneal cells of golden hamsters after a peritoneal injection of 10 mL of Dulbecco’s Modified Eagle’s medium (DMEM) (Sigma-Aldrich). The peritoneal macrophages were plated onto glass coverslips placed within the wells of a 24-well culture plate and incubated at 37 °C in 5% CO2 for 1 h. After removing the nonadherent cells, the monolayers were infected with stationary-phase L. braziliensis promastigotes at a 5:1 parasite/macrophage ratio for 4 h. The infected macrophages were washed and incubated with several pterocarpanquinone concentrations (0-25 μM) for 72 h. The monolayers were then stained with Giemsa, and at least 100 infected macrophages per sample were counted under optical microscopy.
# as §2
# [3] = tested on: intracellular amastigotes of L. infantum; test: Antiamastigote test, L. infantum in mouse peritoneal macrophages; type: cell-based, Leishmania infantum; conditions: CC50 in Macrophages/IC50 in intracellular amastigotes
# Method: as §1, §2
# [4] = tested on: peritoneal macrophages of Swiss mice; parameters: method as in PMID 21531758; conditions: murine macrophage; cited from earlier work
# [5] = tested on: L. amazonensis promastigotes; parameters: method as in PMID 21531758; conditions: read-out: L. amazonensis Promastigote IC50; cited from earlier work
# [6] = tested on: L. braziliensis promastigotes; parameters: method as in PMID 25340550; conditions: read-out: L. braziliensis Promastigote IC50; cited from earlier work
# [7] = tested on: L. infantum promastigotes; parameters: method as in PMID 27067332; conditions: read-out: L. infantum Promastigote IC50; cited from earlier work
# [8] = tested on: intracellular amastigotes of L. amazonensis; parameters: method as in PMID 21531758; conditions: read-out: L. amazonensis Amastigote IC50; cited from earlier work
# [9] = tested on: intracellular amastigotes of L. braziliensis; parameters: method as in PMID 25340550; conditions: read-out: L. braziliensis Amastigote IC50; cited from earlier work
# [10] = tested on: intracellular amastigotes of L. infantum; parameters: method as in PMID 27067332; conditions: read-out: L. infantum Amastigote IC50; cited from earlier work
smiles,measurement,setting,value
O=C1C2=C(C(=O)c3ccccc31)[C@H]1Oc3ccccc3[C@H]1CO2 [LQB-118 (1)],L. amazonensis SI (Selective Index),[1],12.73
same,L. braziliensis SI (Selective Index),[2],2.46
same,L. infantum SI (Selective Index),[3],5.68
same,CC50,[4],18.5 µM
same,IC50,[5],1.73 µM
same,IC50,[6],3.4 µM
same,IC50,[7],4.08 µM
same,IC50,[8],1.45 µM
same,IC50,[9],7.5 µM
same,IC50,[10],3.25 µM
